The experiment deals with T1, Smoothened (SMO) (Homo sapiens, UniProt Q99835).
T1 construct: human SMO transmembrane domain (residues 190-555) fused with N-terminal 10-His tag and thermostabilized apocytochrome b562RIL, in SMA-nanodiscs
T1 sequence (Q99835 190-555): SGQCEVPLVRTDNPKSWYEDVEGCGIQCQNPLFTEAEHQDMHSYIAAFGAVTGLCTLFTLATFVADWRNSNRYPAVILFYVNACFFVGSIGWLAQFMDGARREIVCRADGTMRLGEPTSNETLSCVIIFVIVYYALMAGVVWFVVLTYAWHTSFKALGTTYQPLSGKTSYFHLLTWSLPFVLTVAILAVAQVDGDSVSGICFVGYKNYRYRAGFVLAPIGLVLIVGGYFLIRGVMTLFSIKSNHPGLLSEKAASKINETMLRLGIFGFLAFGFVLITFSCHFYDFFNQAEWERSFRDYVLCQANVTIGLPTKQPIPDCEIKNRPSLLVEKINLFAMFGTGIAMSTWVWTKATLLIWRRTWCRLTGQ
The experiment can be described thus: ligand-observed 1D 1H NMR titration (line broadening), purified SMO in SMA-nanodiscs. Format: binding.

Results on 2 molecules are retold here after publication PMC9074879, “Solubilization, purification, and ligand binding characterization of G protein-coupled receptor SMO in native membrane bilayer using styrene maleic acid copolymer” (PeerJ, 2022).

For `CN[C@H]1CC[C@H](N(Cc2cccc(-c3ccncc3)c2)C(=O)c2sc3ccccc3c2Cl)CC1` [SAG], the dissociation constant Kd came out at 15.9 ± 4.4 nM.

For the molecule `Cc1nn(-c2ccccc2)c(C)c1/C=N/N1CCN(Cc2ccccc2)CC1` [SANT-1], the dissociation constant Kd was 2.3 ± 1.2 nM.

What is called Kd is a measure of binding affinity in units of concentration.
